From paper PMC12238723, “Phase I Clinical Trial of CVL218, a Novel PARP1/2 Inhibitor, in Patients with Advanced Solid Tumors” (MedComm, 2025)

Test system: patients with advanced solid tumors
Assay: Treatment-related adverse events (CTCAE v5.0), phase I dose escalation
Format: in vivo
From the text: This study was a single‐arm, dose‐escalation phase I trial conducted in Sun Yat‐sen University Cancer Center in China. This study assessed CVL218 in patients with histologically or cytologically confirmed advanced solid tumors who were in PD after standard therapeutic regimens or lacked standard treatment options. Inclusion criteria included: age 18–75 years; with at least one measurable and evaluable target lesion per Response Evaluation Criteria in Solid Tumors 1.1 (RECIST 1.1); ECOG performance status of 0 or 1; adequate hematological, renal, cardiac, and hepatic functions and a life expectancy ≥12 weeks. Key exclusion criteria included prior usage of PARP inhibitors; allergic to the research drug or its components; with active, unstable systemic diseases or active, uncontrolled infection; a history of other malignancies within 5 years, and pregnant or lactating women.
CVL218 was administered orally, and this dose‐escalation trial included nine dose levels: 100 mg QD (50 mg BID), 200 mg QD (100 mg BID), 400 mg QD (200 mg BID), 700 mg QD (350 mg BID), 1000 mg QD (500 mg BID), 1200 mg QD (600 mg BID), 1400 mg QD (700 mg BID), 1700 mg QD (850 mg BID), and 2000 mg QD (1000 mg BID). Patients enrolled in the study received a single oral dose on the first day, followed by continuous multiple dosing (twice a day taking 12 h apart) after 72 h, with the treatment cycle lasting 4 weeks. The period during which patients received a single dose is designated as cycle 0 (C0), lasting 72 h. After this period, patients begin multiple dosing, referred to as cycle 1 (C1). An initial accelerated titration design was employed for the three lowest dose groups, and the “3+3” design was applied starting with the 300 mg BID cohort.
The primary objectives were to assess safety and tolerability as well as to determine the MTD, DLT, and dose recommended for further study. DLT was defined as any of the following events occurring during cycle 0 (including 72 h wash‐out period after a single dose) and cycle 1 per Common Terminology Criteria for Adverse Events (CTCAE) version 5.0: grade 4 anemia; grade 4 neutropenia; grade 3 neutropenia with fever ≥38.5°C; grade 4 thrombocytopenia; grade 3 thrombocytopenia associated with bleeding; grade ≥2 neurotoxicity; any other grade ≥3 nonhematological toxicities (excluding alopecia). The secondary objectives were to assess the PK and preliminary efficacy of CVL218.
Subjects who received at least one dose of CVL218 with postadministration safety records were included in safety analysis set. Subjects who received at least one dose of CVL218 with at least one evaluable PK parameter were included in PK analysis set. Per‐protocol set were used for efficacy analysis. Descriptive statistics of safety were presented per CTCAE v5.0. The PK parameters T max and T 1/2 were shown as the median (min, max) and mean ± SD, respectively. A two‐sided p < 0.05 was considered to indicate statistical significance. Statistical analysis was performed by using GraphPad prism 8.0.2 and R‐4.3.3.

CNCc1ccc(-c2cc3cc(F)cc(C(N)=O)c3o2)cc1.Cl [CVL218]
Headache (200 mg BID, ≥G3): 0 n (%) | Hypoalbuminemia (200 mg BID, ≥G3): 0 n (%) | Infusion site pain (200 mg BID, ≥G3): 0 n (%) | Laboratory test disorders (200 mg BID, ≥G3): 0 n (%) | Limb discomfort (200 mg BID, ≥G3): 0 n (%) | Lipase increased (200 mg BID, ≥G3): 0 n (%) | Metabolic disorders (200 mg BID, ≥G3): 0 n (%) | Musculoskeletal discomfort (200 mg BID, ≥G3): 0 n (%) | Musculoskeletal disorders (200 mg BID, ≥G3): 0 n (%) | Nausea (200 mg BID, ≥G3): 0 n (%) | Nervous system disorders (200 mg BID, ≥G3): 0 n (%) | Neutrophil count decreased (200 mg BID, ≥G3): 0 n (%) | Neutrophil count increased (200 mg BID, ≥G3): 0 n (%) | Palpitations (200 mg BID, ≥G3): 0 n (%) | Protein urine present (200 mg BID, ≥G3): 0 n (%) | Proteinuria (200 mg BID, ≥G3): 0 n (%) | Rash (200 mg BID, ≥G3): 0 n (%) | Renal & urinary disorders (200 mg BID, ≥G3): 0 n (%) | Renal failure (200 mg BID, ≥G3): 0 n (%) | Reproductive disorders (200 mg BID, ≥G3): 0 n (%) | Skin disorders (200 mg BID, ≥G3): 0 n (%) | Urinary occult blood positive (200 mg BID, ≥G3): 0 n (%) | Vomiting (200 mg BID, ≥G3): 0 n (%) | WBC count decreased (200 mg BID, ≥G3): 0 n (%) | WBC count increased (200 mg BID, ≥G3): 0 n (%) | Infusion site pain (350 mg BID, ALL): 0 n (%) | WBC count increased (350 mg BID, ALL): 0 n (%) | ALT increased (350 mg BID, ≥G3): 0 n (%) | AST increased (350 mg BID, ≥G3): 0 n (%) | Abdominal distension (350 mg BID, ≥G3): 0 n (%) | Abdominal pain (350 mg BID, ≥G3): 0 n (%) | Abdominal pain upper (350 mg BID, ≥G3): 0 n (%) | Amylase increased (350 mg BID, ≥G3): 0 n (%) | Anemia (350 mg BID, ≥G3): 0 n (%) | Any AE related to study drug (350 mg BID, ≥G3): 0 n (%) | Asthenia (350 mg BID, ≥G3): 0 n (%) | Blood creatinine increased (350 mg BID, ≥G3): 0 n (%) | Blood system disorders (350 mg BID, ≥G3): 0 n (%) | Blood triglycerides increased (350 mg BID, ≥G3): 0 n (%) | Blood urea increased (350 mg BID, ≥G3): 0 n (%) | Cardiac disorders (350 mg BID, ≥G3): 0 n (%) | Chest discomfort (350 mg BID, ≥G3): 0 n (%) | Constipation (350 mg BID, ≥G3): 0 n (%) | Decreased appetite (350 mg BID, ≥G3): 0 n (%) | Diarrhea (350 mg BID, ≥G3): 0 n (%) | Dizziness (350 mg BID, ≥G3): 0 n (%) | Erectile dysfunction (350 mg BID, ≥G3): 0 n (%) | Gastrointestinal disorders (350 mg BID, ≥G3): 0 n (%) | General disorders (350 mg BID, ≥G3): 0 n (%) | Gingival bleeding (350 mg BID, ≥G3): 0 n (%) | Granulocyte count increased (350 mg BID, ≥G3): 0 n (%) | Headache (350 mg BID, ≥G3): 0 n (%) | Hypoalbuminemia (350 mg BID, ≥G3): 0 n (%) | Infusion site pain (350 mg BID, ≥G3): 0 n (%) | Laboratory test disorders (350 mg BID, ≥G3): 0 n (%) | Limb discomfort (350 mg BID, ≥G3): 0 n (%) | Lipase increased (350 mg BID, ≥G3): 0 n (%) | Metabolic disorders (350 mg BID, ≥G3): 0 n (%) | Musculoskeletal discomfort (350 mg BID, ≥G3): 0 n (%) | Musculoskeletal disorders (350 mg BID, ≥G3): 0 n (%) | Nausea (350 mg BID, ≥G3): 0 n (%) | Nervous system disorders (350 mg BID, ≥G3): 0 n (%) | Neutrophil count decreased (350 mg BID, ≥G3): 0 n (%) | Neutrophil count increased (350 mg BID, ≥G3): 0 n (%) | Palpitations (350 mg BID, ≥G3): 0 n (%) | Protein urine present (350 mg BID, ≥G3): 0 n (%) | Proteinuria (350 mg BID, ≥G3): 0 n (%) | Rash (350 mg BID, ≥G3): 0 n (%) | Renal & urinary disorders (350 mg BID, ≥G3): 0 n (%) | Renal failure (350 mg BID, ≥G3): 0 n (%) | Reproductive disorders (350 mg BID, ≥G3): 0 n (%) | Skin disorders (350 mg BID, ≥G3): 0 n (%) | Urinary occult blood positive (350 mg BID, ≥G3): 0 n (%) | Vomiting (350 mg BID, ≥G3): 0 n (%) | WBC count decreased (350 mg BID, ≥G3): 0 n (%) | WBC count increased (350 mg BID, ≥G3): 0 n (%) | Infusion site pain (500 mg BID, ALL): 0 n (%) | WBC count increased (500 mg BID, ALL): 1 (25) n (%) | ALT increased (500 mg BID, ≥G3): 0 n (%) | AST increased (500 mg BID, ≥G3): 0 n (%) | Abdominal distension (500 mg BID, ≥G3): 0 n (%) | Abdominal pain (500 mg BID, ≥G3): 0 n (%) | Abdominal pain upper (500 mg BID, ≥G3): 0 n (%) | Amylase increased (500 mg BID, ≥G3): 0 n (%) | Anemia (500 mg BID, ≥G3): 0 n (%) | Any AE related to study drug (500 mg BID, ≥G3): 1 (25.0) n (%) | Asthenia (500 mg BID, ≥G3): 0 n (%) | Blood creatinine increased (500 mg BID, ≥G3): 0 n (%) | Blood system disorders (500 mg BID, ≥G3): 0 n (%) | Blood triglycerides increased (500 mg BID, ≥G3): 0 n (%) | Blood urea increased (500 mg BID, ≥G3): 0 n (%) | Cardiac disorders (500 mg BID, ≥G3): 0 n (%) | Chest discomfort (500 mg BID, ≥G3): 0 n (%) | Constipation (500 mg BID, ≥G3): 0 n (%) | Decreased appetite (500 mg BID, ≥G3): 0 n (%) | Diarrhea (500 mg BID, ≥G3): 0 n (%) | Dizziness (500 mg BID, ≥G3): 0 n (%) | Erectile dysfunction (500 mg BID, ≥G3): 0 n (%) | Gastrointestinal disorders (500 mg BID, ≥G3): 0 n (%) | General disorders (500 mg BID, ≥G3): 0 n (%) | Gingival bleeding (500 mg BID, ≥G3): 0 n (%) | Granulocyte count increased (500 mg BID, ≥G3): 0 n (%) | Headache (500 mg BID, ≥G3): 0 n (%) | Hypoalbuminemia (500 mg BID, ≥G3): 0 n (%) | Infusion site pain (500 mg BID, ≥G3): 0 n (%) | Limb discomfort (500 mg BID, ≥G3): 0 n (%) | Metabolic disorders (500 mg BID, ≥G3): 0 n (%) | Musculoskeletal discomfort (500 mg BID, ≥G3): 0 n (%) | Musculoskeletal disorders (500 mg BID, ≥G3): 0 n (%) | Nausea (500 mg BID, ≥G3): 0 n (%) | Nervous system disorders (500 mg BID, ≥G3): 0 n (%) | Neutrophil count decreased (500 mg BID, ≥G3): 0 n (%) | Neutrophil count increased (500 mg BID, ≥G3): 0 n (%) | Palpitations (500 mg BID, ≥G3): 0 n (%) | Protein urine present (500 mg BID, ≥G3): 0 n (%) | Proteinuria (500 mg BID, ≥G3): 0 n (%) | Rash (500 mg BID, ≥G3): 0 n (%) | Renal & urinary disorders (500 mg BID, ≥G3): 0 n (%) | Renal failure (500 mg BID, ≥G3): 0 n (%) | Reproductive disorders (500 mg BID, ≥G3): 0 n (%) | Skin disorders (500 mg BID, ≥G3): 0 n (%) | Urinary occult blood positive (500 mg BID, ≥G3): 0 n (%) | Vomiting (500 mg BID, ≥G3): 0 n (%) | WBC count decreased (500 mg BID, ≥G3): 0 n (%) | WBC count increased (500 mg BID, ≥G3): 0 n (%) | Infusion site pain (600 mg BID, ALL): 0 n (%) | WBC count increased (600 mg BID, ALL): 0 n (%) | ALT increased (600 mg BID, ≥G3): 0 n (%) | AST increased (600 mg BID, ≥G3): 0 n (%)
